From PubChem BioAssay (NCI) come the findings set out here.

SMILES strings stand for the structures. Where “and” joins values, the source holds several entries; their conditions need not be identical. Equal entries are not always repeated.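 Following 48 hours of exposure in 96-well plates, responses at five concentrations were used to interpolate endpoints linearly. Abbreviation: GI50, concentration required for 50% inhibition of growth. TGI denotes the concentration required for complete inhibition of growth.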

Assay in all cases: NCI-60 cell line screen, 48 h
For experiment [1], the system named is K-562 leukemia.
Experiment [2] has as its system SW-620 colon.
Experiment [3] relates to SNB-19 CNS.
The test system of experiment [4] is SR leukemia.
Experiment [5] concerns NCI-H460 lung.
Experiment [6] relates to KM12 colon.
The subject of experiment [7] is HL-60(TB) leukemia.
In experiment [8] the test system is HCC-2998 colon.
The subject of experiment [9] is HT29 colon.
The test system of experiment [10] is MALME-3M melanoma.

In the case of `O=C(Nc1cccs1)c1c(O)[nH]c(=S)[nH]c1=O`, the TGI in experiment [1], in experiment [2], in experiment [3], in experiment [4], in experiment [5] and in [6] was > 100 µM each time.

On to `O=C(/C=C/C12c3ccccc3C(c3ccccc31)C1C(=O)N(c3ccccc3)C(=O)C12)c1ccccc1` (stereo unspecified), for which the GI50 in experiment [1] was 1.39 µM; in experiment [2], 2.74 µM; in experiment [3], 3.08 µM; in experiment [7], 1.02 µM; in experiment [4] it was 2.02 µM; in experiment [8], 1.75 µM. Besides, the GI50 in [9] was 2.69 µM; in experiment [5], 1.92 µM; in experiment [6], 2.64 µM. Besides, the TGI in experiment [1] was > 100 µM; in experiment [2], > 100 µM; in experiment [3], > 100 µM; in experiment [7] it was 8.66 µM; in [4] it was > 100 µM; in [8], 3.62 µM. Also, the TGI in experiment [9] was > 100 µM; in [5] it was 4.69 µM; in experiment [6], > 100 µM.

On to `CCCn1c(SC)nc(COC(=O)NC)c1COC(=O)NC`, for which the TGI in experiment [1], in experiment [2], in experiment [3], in experiment [7], in experiment [4] and in [9] was > 100 µM throughout. Also, the TGI in experiment [5] and in experiment [6] was > 100 µM throughout.

As to `CCOC(=O)C1=C(C(=O)c2ccc(C)cc2)C(c2cccc([N+](=O)[O-])c2)C(C(=O)c2ccc(C)cc2)=C(C(=O)OCC)N1`, the TGI was 57.9 µM in experiment [1]; 27.1 µM in experiment [2]; 25.9 µM in experiment [3]; 96.7 µM in experiment [7]; 66.4 µM in [10]; 35.3 µM in [4]. The TGI in experiment [9] is 28.7 µM; in [5], > 100 µM; in experiment [6], 25.4 µM.

For the compound `FC(F)(F)c1cc(-c2nnc3n2N=C(N2CCCC2)CS3)cc(C(F)(F)F)c1`, the GI50 was > 50 µM in experiment [1]; > 50 µM in experiment [2]; 30.2 µM in [3]; > 50 µM in [10]; 48.8 µM in experiment [4]; > 50 µM in experiment [8]. The values for the GI50 in experiment [9], in [5] and in [6] were > 50 µM, 7.15 µM and > 50 µM, respectively. Moreover, the TGI in [1], in [2], in [3], in [10], in [4] and in experiment [8] was > 50 µM throughout. The TGI in [9], in experiment [5] and in experiment [6] was > 50 µM each time.

For the compound `CCOC(=O)C1=C(c2ccccc2)N(C)c2ccccc2S1`, the TGI in experiment [1], in experiment [2], in experiment [3], in experiment [7], in experiment [10] and in experiment [4] was > 100 µM in each case. Also, the TGI amounted to 46.1 µM in [9] and 63.6 µM in experiment [5].

For `O=C(O)C1C2CCC(O2)C1C(=O)N1CCCCC1` (stereo unspecified), the TGI in experiment [2] came to 15 µM; in experiment [3], 38.2 µM; in [10], 23.6 µM; in experiment [4] it was 14.2 µM; in experiment [8] it was 11.9 µM; in experiment [9], 15.1 µM. The TGI in experiment [5] worked out at 39.2 µM; in [6], 37.2 µM.

Regarding `COc1cc(/C=C\c2ccc(C)cc2)cc(OC)c1OC`, the TGI in experiment [1] is 11.7 µM; in experiment [2], > 100 µM; in experiment [7], 0.0159 µM; in experiment [4], 0.0917 µM; in [8] it was 0.215 µM and < 0.0303 µM; in experiment [5] it was 0.232 µM. Moreover, the GI50 in [8] was < 0.0129 µM.

For the compound `O=C([CH-]C(=O)c1ccccc1)c1ccccc1.O=C([CH-]C(=O)c1ccccc1)c1ccccc1.O=C([CH-]C(=O)c1ccccc1)c1ccccc1.[Nd+3].[OH3+]`, the GI50 in experiment [1] was 2.8 µM; in experiment [2], 4.1 µM; in [3], 4.52 µM; in [7], 1.5 µM; in experiment [10], 9.41 µM; in experiment [8], 4.73 µM. Further, the GI50 in experiment [9] was 4.64 µM; in experiment [5], 3.41 µM; in experiment [6], 6.02 µM. The TGI in experiment [1] came out at 16.7 µM; in experiment [2], 26.4 µM; in experiment [3] it was 29.1 µM; in experiment [7], 4.99 µM; in [10], 36.4 µM; in [8] it was 19 µM. For the same compound, the TGI in experiment [9] is 16.1 µM; in experiment [5] it was > 100 µM; in experiment [6], 37.9 µM.

On to `Cc1ccc(S(=O)(=O)NCCNC2=CC(=O)c3nc4ccccc4c4ccnc2c34)cc1`, for which the GI50 is 25 µM in [1]; 19.6 µM in experiment [2]; 13.8 µM in [3]; 28.1 µM in experiment [7]; 20.5 µM in experiment [10]; 4.77 µM in experiment [4]. Moreover, the GI50 is 32.5 µM in experiment [9], 15.7 µM in experiment [5] and 16.1 µM in experiment [6]. The TGI was > 100 µM in experiment [1]; 97.2 µM in experiment [2]; 33.9 µM in [3]; > 100 µM in experiment [7]; 54.5 µM in experiment [10]; > 100 µM in experiment [4]. Also, the TGI in experiment [9] was found to be 79.1 µM; in [5], 56.5 µM; in [6], 34.6 µM.

On to `CC(=O)NNc1nc(C)c(C(=O)NNC(=O)C(=O)Nc2c(C)cccc2C)s1`, for which the TGI in experiment [1] is > 100 µM; in experiment [2], > 100 µM; in [3] it was > 100 µM; in experiment [7] it was 77.6 µM; in experiment [10], > 100 µM; in experiment [8], > 100 µM. In addition, the TGI in [9], in experiment [5] and in [6] was > 100 µM throughout.

For the compound `O=C(c1ccc(Cl)cc1)c1ccc(OCCCCCCCCCCOc2ccc(C(=O)c3ccc(Cl)cc3)cc2)cc1`, the TGI in experiment [1], in experiment [2], in [3], in experiment [7], in [10] and in [8] was > 100 µM throughout. Further, the TGI in [9], in experiment [5] and in experiment [6] was > 100 µM throughout.

With `COC(=O)C1C(O)CC(c2ccccn2)N(Cc2ccccc2)C1c1ccccn1` (stereo unspecified), the TGI in experiment [1] was > 100 µM; in experiment [2] it was > 100 µM; in [3] it was > 100 µM; in [7] it was 65.1 µM; in [10], > 100 µM; in experiment [8], > 100 µM. Besides, the TGI in experiment [9], in experiment [5] and in [6] was > 100 µM throughout.

As to `CCOC(=O)/C(O)=C/c1cc(OC)cc(=O)o1`, the TGI in experiment [1], in experiment [2], in [3], in experiment [7], in experiment [10] and in experiment [8] was > 100 µM each time. For the same compound, the TGI in experiment [9], in experiment [5] and in [6] was > 100 µM each time.

As for `O=C1C=CC=CC2CC=C[C@@H](O)C12` (stereo partly specified), the TGI in experiment [1] was > 100 µM; in experiment [2], 35.3 µM; in experiment [3], 54.3 µM; in experiment [7] it was 37 µM; in experiment [10], 46.8 µM; in [4], 44.2 µM. Further, the TGI was 37.7 µM in experiment [9], 38 µM in experiment [5] and 24.5 µM in experiment [6].

For `COc1cc(/C=C2\CCC/C(=C\c3cc(OC)c(O)c(OC)c3)C2=O)cc(OC)c1O`, the GI50 in experiment [1] was 2.26 µM; in [3] it was 3.61 µM; in experiment [4], 1.73 µM; in [9] it was 3.8 µM. The TGI was 75 µM and > 100 µM in experiment [1]; 75 µM and > 100 µM in experiment [2]; 75 µM and > 100 µM in experiment [3]; 4.38 µM and 3.3 µM in experiment [10]; 75 µM and 28.8 µM in experiment [4]; 38 µM and > 100 µM in experiment [9]. Moreover, the TGI in experiment [5] was determined as 10.7 µM; in experiment [6], 8.33 µM.

For the compound `Cc1ccc(-c2cc(-c3ccco3)c(C#N)c(=O)[nH]2)cc1`, the TGI in experiment [1], in [2], in [3], in [7], in experiment [10] and in [8] was > 100 µM in each case. The TGI in experiment [9], in experiment [5] and in [6] was > 100 µM each time.

`NCCCOCC(=O)O`: the TGI in experiment [1], in experiment [2], in experiment [3], in experiment [10], in [4] and in [8] was > 100 µM throughout. Besides, the TGI in [9] and in [6] was > 100 µM throughout.

For `CC(=O)N[C@@H]1C(O)CN2C(=O)C(=O)O[C@H](C(O)CO)[C@@H]12` (stereo partly specified), the TGI in [1], in experiment [2], in [3], in [7], in experiment [10] and in experiment [8] was > 100 µM each time. Besides, the TGI in experiment [9], in [5] and in experiment [6] was > 100 µM throughout.
